From the supplement of paper PMC10307832

Assays:
Test in all cases: relative viability (nuclei count vs DMSO), 5 days (fraction); higher = more cells survive
BEN = system: BEN
Procedure, shortened: (§1)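 One day after seeding in 1536-well plates, lung cancer cell lines were dosed by pin tool. Dosing was either single-drug or a fixed anchor-drug dose plus five library-drug doses (not always all listed) in √10 steps. After 5 days, nuclei were stained in one fix-and-stain step and counted on 4× images, and relative viability is the nuclei count of treated wells over that of vehicle wells, given as the median of duplicate plates.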

ChaGo-K-1 = system: ChaGo-K-1
Procedure, shortened: as §1

HCC-78 = system: HCC-78
Procedure, shortened: as §1

LC-2-ad = system: LC-2-ad
Procedure, shortened: as §1

LCLC-97TM1 = system: LCLC-97TM1
Procedure, shortened: as §1

LK-2 = system: LK-2
Procedure, shortened: as §1

LU99A = system: LU99A
Procedure, shortened: as §1

LXF-289 = system: LXF-289
Procedure, shortened: as §1

NCI-H1355 = system: NCI-H1355
Procedure, shortened: as §1

NCI-H1651 = system: NCI-H1651
Procedure, shortened: as §1

NCI-H1666 = system: NCI-H1666
Procedure, shortened: as §1

NCI-H1944 = system: NCI-H1944
Procedure, shortened: as §1

NCI-H1975 = system: NCI-H1975
Procedure, shortened: as §1

NCI-H2087 = system: NCI-H2087
Procedure, shortened: as §1

NCI-H596 = system: NCI-H596
Procedure, shortened: as §1

NCI-H838 = system: NCI-H838
Procedure, shortened: as §1

PC-3 [JPC-3] = system: PC-3 [JPC-3]
Procedure, shortened: as §1

SK-MES-1 = system: SK-MES-1
Procedure, shortened: as §1

CCN(CC)CCCCNc1ncc2cc(-c3cc(OC)cc(OC)c3)c(NC(=O)NC(C)(C)C)nc2n1 + CC1(C)CCC(c2ccc(Cl)cc2)=C(CN2CCN(c3ccc(C(=O)NS(=O)(=O)c4ccc(N[C@H](CCN5CCOCC5)CSc5ccccc5)c(S(=O)(=O)C(F)(F)F)c4)cc3)CC2)C1 [Navitoclax] (partner 0.5 µM)
relative viability (BEN; first compound 0.01 µM): 0.0624
relative viability (BEN; first compound 0.03162 µM): 0.0641
relative viability (BEN; first compound 0.1 µM): 0.0454
relative viability (BEN; first compound 0.3162 µM): 0.0573
relative viability (BEN; first compound 1 µM): 0.0385
relative viability (ChaGo-K-1; first compound 0.01 µM): 0.844
relative viability (ChaGo-K-1; first compound 0.03162 µM): 0.893
relative viability (ChaGo-K-1; first compound 0.1 µM): 1.49
relative viability (ChaGo-K-1; first compound 0.3162 µM): 1.16
relative viability (ChaGo-K-1; first compound 1 µM): 0.716
relative viability (HCC-78; first compound 0.03162 µM): 0.75
relative viability (HCC-78; first compound 0.1 µM): 0.618
relative viability (HCC-78; first compound 0.3162 µM): 0.809
relative viability (HCC-78; first compound 1 µM): 0.64
relative viability (LC-2-ad; first compound 0.01 µM): 0.425
relative viability (LC-2-ad; first compound 0.03162 µM): 0.372
relative viability (LC-2-ad; first compound 0.1 µM): 0.558
relative viability (LC-2-ad; first compound 0.3162 µM): 0.511
relative viability (LC-2-ad; first compound 1 µM): 0.487
relative viability (LCLC-97TM1; first compound 0.03162 µM): 0.356
relative viability (LCLC-97TM1; first compound 0.1 µM): 0.503
relative viability (LCLC-97TM1; first compound 0.3162 µM): 0.435
relative viability (LCLC-97TM1; first compound 1 µM): 0.4
relative viability (LK-2; first compound 0.01 µM): 0.918
relative viability (LK-2; first compound 0.03162 µM): 0.841
relative viability (LK-2; first compound 0.1 µM): 0.8
relative viability (LK-2; first compound 0.3162 µM): 0.732
relative viability (LK-2; first compound 1 µM): 0.36
relative viability (LU99A; first compound 0.01 µM): 0.716
relative viability (LU99A; first compound 0.03162 µM): 0.862
relative viability (LU99A; first compound 0.1 µM): 0.949
relative viability (LU99A; first compound 0.3162 µM): 0.85
relative viability (LU99A; first compound 1 µM): 0.69
relative viability (LXF-289; first compound 0.01 µM): 1.02
relative viability (LXF-289; first compound 0.03162 µM): 0.968
relative viability (LXF-289; first compound 0.1 µM): 1.07
relative viability (LXF-289; first compound 0.3162 µM): 0.939
relative viability (LXF-289; first compound 1 µM): 0.834
relative viability (NCI-H1355; first compound 0.01 µM): 0.906
relative viability (NCI-H1355; first compound 0.03162 µM): 1.09
relative viability (NCI-H1355; first compound 0.1 µM): 0.991
relative viability (NCI-H1355; first compound 0.3162 µM): 1.02
relative viability (NCI-H1355; first compound 1 µM): 0.938
relative viability (NCI-H1651; first compound 0.01 µM): 0.983
relative viability (NCI-H1651; first compound 0.03162 µM): 1.09
relative viability (NCI-H1651; first compound 0.1 µM): 1.25
relative viability (NCI-H1651; first compound 0.3162 µM): 1.23
relative viability (NCI-H1651; first compound 1 µM): 1.03
relative viability (NCI-H1666; first compound 0.01 µM): 1.03
relative viability (NCI-H1666; first compound 0.03162 µM): 1.02
relative viability (NCI-H1666; first compound 0.1 µM): 0.972
relative viability (NCI-H1666; first compound 0.3162 µM): 1.12
relative viability (NCI-H1666; first compound 1 µM): 0.871
relative viability (NCI-H1944; first compound 0.01 µM): 1.18
relative viability (NCI-H1944; first compound 0.03162 µM): 1.02
relative viability (NCI-H1944; first compound 0.1 µM): 1.08
relative viability (NCI-H1944; first compound 0.3162 µM): 1.09
relative viability (NCI-H1944; first compound 1 µM): 1.02
relative viability (NCI-H1975; first compound 0.01 µM): 1.14
relative viability (NCI-H1975; first compound 0.03162 µM): 1.13
relative viability (NCI-H1975; first compound 0.1 µM): 1.14
relative viability (NCI-H1975; first compound 0.3162 µM): 1.23
relative viability (NCI-H1975; first compound 1 µM): 0.87
relative viability (NCI-H2087; first compound 0.01 µM): 1.15
relative viability (NCI-H2087; first compound 0.03162 µM): 1.12
relative viability (NCI-H2087; first compound 0.1 µM): 1.35
relative viability (NCI-H2087; first compound 0.3162 µM): 1.23
relative viability (NCI-H2087; first compound 1 µM): 0.986
relative viability (NCI-H596; first compound 0.01 µM): 0.912
relative viability (NCI-H596; first compound 0.03162 µM): 1.02
relative viability (NCI-H596; first compound 0.1 µM): 0.919
relative viability (NCI-H596; first compound 0.3162 µM): 0.797
relative viability (NCI-H596; first compound 1 µM): 0.656
relative viability (NCI-H838; first compound 0.01 µM): 1.18
relative viability (NCI-H838; first compound 0.03162 µM): 1.12
relative viability (NCI-H838; first compound 0.1 µM): 1.44
relative viability (NCI-H838; first compound 0.3162 µM): 1.07
relative viability (NCI-H838; first compound 1 µM): 0.809
relative viability (PC-3 [JPC-3]; first compound 0.01 µM): 0.827
relative viability (PC-3 [JPC-3]; first compound 0.03162 µM): 0.785
relative viability (PC-3 [JPC-3]; first compound 0.1 µM): 0.855
relative viability (PC-3 [JPC-3]; first compound 0.3162 µM): 0.951
relative viability (PC-3 [JPC-3]; first compound 1 µM): 1.02
relative viability (SK-MES-1; first compound 0.01 µM): 1.27
relative viability (SK-MES-1; first compound 0.03162 µM): 1.37
relative viability (SK-MES-1; first compound 0.1 µM): 1.6
relative viability (SK-MES-1; first compound 0.3162 µM): 1.36
relative viability (SK-MES-1; first compound 1 µM): 1.22
